Laboratory results taken from patent US4632926A, “Quinazolinone derivatives which are active against coccidiosis” (priority 1982, dated 1986).
Entries after “also recorded” stand apart in the source; their conditions may differ.

Tests used:
[1] = Toxicity towards poultry, LD50; details: chicken, in vivo
Eimeria acervulina = assay: Coccidiostatic activity in vivo against Eimeria acervulina (presence of oocysts in the excrements); parameters: species or system Eimeria acervulina (in Ranger pullets); key to E. acervulina (oocysts): A: absent; M: minimal present; P: present
Experimental: (§1) Groups of 5 one-week-old Ranger pullets were infected each with a mixture of 5500 sporulated oocysts of Eimeria tenella and with 5000 sporulated oocysts of Eimeria acervulina.
(§2) The compound being tested was administered at the preselected dose in admixture with a poultry-feed (LD5) poor in vitamin K and containing no other additive.
(§3) The pullets were fed ad libitum with a fodder so prepared, beginning from 1 day prior to the infestation and going on for further 5 days.
(§4) As a check, there were used non-infested non-treated chickens and infested non-treated chickens.
(§5) The evaluation of the activity on Eimeria tenella was accomplished by ascertaining the presence of lesions, if any, 5 days after the infection, while the activity on Eimeria acervulina was evaluated by ascertaining the presence of oocysts, if if any, in the excrements 5 days after the infection.
(§6) The above compounds were tested for anticoccidial activity against E. tenella and E. acervulina according to the procedure hereabove described.
(§7) The activity against E. tenella was expressed as percent control of the infection at the considered dose, while the activity against E. acervulina was expressed on the basis of the presence, if any, of oocysts in the excrements and was rated as follows: […]

chickens [2] = assay: Toxicity phenomena in chickens fed with the compound in poultry-feed; type: in vivo
Eimeria tenella = assay: Coccidiostatic activity in vivo against Eimeria tenella (lesions, % control of the infection); parameters: species or system Eimeria tenella (in Ranger pullets)
Experimental: as §1, §2, §3, §4, §5, §6, §7

poultry = details: background; cited from earlier work
chickens [3] = details: poultry; cited from earlier work
coccidia = details: cited from earlier work

| SMILES | LD50 [1] | E. acervulina (oocysts) (Eimeria acervulina; 6.25 ppm in feed) | E. acervulina (oocysts) (Eimeria acervulina; 12.5 ppm in feed) | E. acervulina (oocysts) (Eimeria acervulina; 25 ppm in feed) | activity against E. acervulina, result in words (Eimeria acervulina; dose of 6.25 ppm) | toxicity phenomena in chickens (chickens [2]; 100 ppm in poultry-feed along the duration of the activity test) | E. tenella (% control) (Eimeria tenella; 6.25 ppm in feed) | E. tenella (% control) (Eimeria tenella; 12.5 ppm in feed) | E. tenella (% control) (Eimeria tenella; 25 ppm in feed) | activity against E. tenella, result in words (Eimeria tenella; dose of 12.5 ppm) | E. acervulina (oocysts) (Eimeria acervulina; 3.125 ppm in feed) | E. tenella (% control) (Eimeria tenella; 3.125 ppm in feed) | toxicity phenomena in chickens (chickens [2]; about 38 ppm in the poultry-feed) | toxicity for chickens (poultry) | LD50 (chickens [3]) | anticoccidial activity (coccidia; background, poultry, even at very low doses (practical dose 3 ppm in feed)) | activity of trans-isomer compared with cis isomer (coccidia; trans versus cis isomer in the piperidine ring, Barringer et al. 1973) |
| --- | --- | --- | --- | --- | --- | --- | --- | --- | --- | --- | --- | --- | --- | --- | --- | --- | --- |
| CCNN=C(CC1NCCCC1OC)Cn1cnc2cc(Br)c(Cl)cc2c1=O (stereo not shown) [Compound No. 2, 6-chloro-7-bromo-3-[3-(3-methoxy-2-piperidyl)-acetonyl]-(3H)-quinazolin-4-one ethylhydrazone] | ~100 mg/kg | P | A | A | complete activity | No toxicity phenomena | 100 % control | 100 % control | 100 % control | full activity |  |  |  |  |  |  |  |
| NN=C(CC1NCCCC1O)Cn1cnc2cc(Br)c(Cl)cc2c1=O (stereo not shown) [Compound No. 1, 6-chloro-7-bromo-3-[3-(3-hydroxy-2-piperidyl)-acetonyl]-(3H)-quinazolin-4-one hydrazone] |  | A | A | A |  |  | 100 % control | 100 % control | 100 % control |  | M | 100 % control |  |  |  |  |  |
| O=C(CC1NCCCC1O)Cn1cnc2cc(Br)c(Cl)cc2c1=O (stereo not shown) [Halofuginone] |  |  |  |  |  |  |  |  |  |  |  |  | show phenomena of toxicity | very toxic for chickens | 17.6 mg/Kg body weight | particularly active against coccidiosis in poultry; also recorded: high anticoccidial activity even at very low doses |  |
| O=C(C[C@H]1NCCC[C@@H]1O)Cn1cnc2cc(Br)c(Cl)cc2c1=O (relative stereo) [trans-isomer] |  |  |  |  |  |  |  |  |  |  |  |  |  |  |  |  | higher activity than the corresponding cis isomer |
| O=c1c2cc(Cl)c(Br)cc2ncn1CC(CC1NCCCC1O)=NO (stereo not shown) [Compound A, reference compound] |  | P | P | M |  |  | 0 % control | 40 % control | 100 % control |  | P | 0 % control |  |  |  |  |  |
